From patent publication US7732134B2, “Methods to predict cholesterol elevation during immunosuppressant therapy” (Novartis AG, priority 2002, dated 2010)
Blank lines part the entries; values can stand above or below the compound they belong to.

Key:
cholesterol biosynthesis = details: See El-Omar et al.; cited from earlier work
[1] = RAD B251 clinical trial: LDL cholesterol levels by IL-1β genotype and treatment group; assay type: in vivo, human; details: last visit
Source text: (§1) The RAD B251 study was a randomized, multicenter, double-blind, parallel group study of the efficacy and safety of everolimus (Certican™) (RAD) versus mycophenolate mofetil (MMF) used in combination with cyclosporine (CsA) (NEORAL®) and prednisone. The study consisted of three periods: a Screening period, a Baseline period and a Double-Blind Treatment period. Following the Baseline assessments, patients who meet the inclusion/exclusion criteria were randomized into one of the three treatment groups (1:1:1) once it has been ascertained that the allograft is functional and that oral medication can be tolerated (within 48 hours post-transplantation). Determination of allograft function was by the investigator's judgement and was based upon adequate urine output and evidence of falling creatinine levels. The day of randomization and administration of the first dose of study medication was recorded as Day 1 of the study. The three treatment groups are described below: • Dose Level 1: 0.75 mg RAD bid+NEORAL®+prednisone • Dose Level 2: 1.5 mg RAD bid+NEORAL®+prednisone • Comparator 1 g MMF bid+NEORAL®+prednisone Concomitant Therapy Initiation and Maintenance of NEORAL®
(§2) A treatment period of three years followed transplantation. […] Renal biopsies were required at Baseline (may be intra-operative) and at the time of any suspected rejection. Blinded study drug administration ceased at 3 years.
(§3) Male and female patients, 16-65 years of age who are scheduled to undergo primary cadaveric, living unrelated or non-HLA identical related donor kidney transplantation, were allowed to enter the study. Patients who discontinued the study prematurely were not replaced. Each patient had to meet all of the inclusion/exclusion criteria to be eligible for entry into the study.
(§4) A total of 82 unique samples from the RAD B251 clinical trial were genotyped upon their consent to participate in the pharmacogenetic evaluation. This represents about 15% of the total population that participated in the RAD B251 clinical trial. Blood samples from each patient were collected at the individual trial sites and then shipped to Covance (Geneva, Switzerland). The genomic DNA of each patient was extracted from the blood by Covance using the PUREGENE™ DNA Isolation Kit (D-50K) (Gentra, Minneapolis, Minn.).
(§5) An analysis of covariance model was used for the analysis of the effect of genotype and treatment on cholesterol levels using the 24-month lab_b.sd2 RADB 251 clinical data set. Terms in the model include the final cholesterol level, the initial cholesterol level as the covariant, and the genotype and treatment as the main effectors. The odds ratios, 95% confidence limits, and Chi-square analysis were calculated where applicable. All statistical analyses were performed using the SAS 8.02 software. To correct for multiple testing, the Bonferroni correction method was performed.

[2] = RAD B251 clinical trial: HDL cholesterol levels by IL-1β genotype and treatment group; assay type: in vivo, human; details: last visit
Source text: as §1, with “The three treatment groups are described below: • Dose Level 1: 0.75 mg RAD bid+NEORAL®+prednisone • Dose Level 2: 1.5 mg RAD bid+NEORAL®+prednisone • Comparator 1 g MMF bid+NEORAL®+prednisone Concomitant Therapy Initiation and Maintenance of NEORAL®” left out
as §2, §3, §4, §5

[3] = RAD B251 clinical trial: total cholesterol levels by IL-1β genotype and treatment group; assay type: in vivo, human; details: for LS Mean Total Cholesterol Levels: RAD (1.5 and 3.0 mg/day), last visit; for odds ratio for increase in total blood cholesterol levels to a final concentration ≧240 mg/dL: RAD/NEORAL® regimen
Source text: The RAD B251 study was a randomized, multicenter, double-blind, parallel group study of the efficacy and safety of everolimus (Certican™) (RAD) versus mycophenolate mofetil (MMF) used in combination with cyclosporine (CsA) (NEORAL®) and prednisone. The study consisted of three periods: a Screening period, a Baseline period and a Double-Blind Treatment period. […] Determination of allograft function was by the investigator's judgement and was based upon adequate urine output and evidence of falling creatinine levels. The day of randomization and administration of the first dose of study medication was recorded as Day 1 of the study. […]
as §2, §3
(The values on the figures, etc. refer to the absolute serum cholesterol levels at the last visit, however during the statistical analysis this value was defined as the dependent variable and the cholesterol level at baseline as the independent variable thus automatically taking into consideration the baseline level).
as §4, with “Switzerland).” for “Switzerland). The genomic DNA of each patient was extracted from the blood by Covance using the PUREGENE™ DNA Isolation Kit (D-50K) (Gentra, Minneapolis, Minn.).”
as §5, with “performed. […]” for “performed.”

[4] = (−31) IL-1β CC genotype, RAD (1.5 and 3.0 mg/day)
[5] = (−31) IL-1β CT genotype, RAD (1.5 and 3.0 mg/day)
[6] = (−31) IL-1β TT genotype, RAD (1.5 and 3.0 mg/day)
[7] = (−511) IL-1β CC genotype, RAD (1.5 and 3.0 mg/day)
[8] = (−511) IL-1β CT genotype, RAD (1.5 and 3.0 mg/day)
[9] = (−511) IL-1β TT genotype, RAD (1.5 and 3.0 mg/day)
[10] = (−31) IL-1β CC genotype, MMF (2 mg/day)
[11] = (−31) IL-1β CT genotype, MMF (2 mg/day)
[12] = (−31) IL-1β TT genotype, MMF (2 mg/day)
[13] = (−511) IL-1β CC genotype, MMF (2 mg/day)
[14] = (−511) IL-1β CT genotype, MMF (2 mg/day)
[15] = (−511) IL-1β TT genotype, MMF (2 mg/day)

Compound: IL-1β: interleukin-1-beta, cytokine reported to inhibit cholesterol biosynthesis
inhibition of cholesterol biosynthesis (cholesterol biosynthesis): 25%

LS Mean LDL Levels [1, 4]: 145.1 mg/dL | LS Mean LDL Levels [1, 5]: 124.1 mg/dL | LS Mean LDL Levels [1, 6]: 112.2 mg/dL | LS Mean LDL Levels [1, 7]: 112.5 mg/dL | LS Mean LDL Levels [1, 8]: 123.6 mg/dL | LS Mean LDL Levels [1, 9]: 144.5 mg/dL | LS Mean HDL levels [2, 4]: 65.1 mg/dL | LS Mean HDL levels [2, 5]: 55 mg/dL | LS Mean HDL levels [2, 6]: 48.4 mg/dL | LS Mean HDL levels [2, 7]: 47.6 mg/dL | LS Mean HDL levels [2, 8]: 54.9 mg/dL | LS Mean HDL levels [2, 9]: 68.4 mg/dL | LS Mean Total Cholesterol Levels ([3]; (−31) IL-1β CC genotype): 291.1 mg/dL | LS Mean Total Cholesterol Levels ([3]; (−31) IL-1β CT genotype): 240.4 mg/dL | LS Mean Total Cholesterol Levels ([3]; (−31) IL-1β TT genotype): 216.6 mg/dL | LS Mean Total Cholesterol Levels ([3]; (−511) IL-1β CC genotype): 217.3 mg/dL | LS Mean Total Cholesterol Levels ([3]; (−511) IL-1β CT genotype): 242.9 mg/dL | LS Mean Total Cholesterol Levels ([3]; (−511) IL-1β TT genotype): 290.3 mg/dL | odds ratio for increase in total blood cholesterol levels to a final concentration ≧240 mg/dL ([3]; patients with a C at position (-31) in the IL-1β gene promoter (CC-CT vs TT)): 7.23 | odds ratio for increase in total blood cholesterol levels to a final concentration ≧240 mg/dL ([3]; patients with a T at position (-511) in the IL-1β gene promoter (CT-TT vs CC)): 5.67
Compound: CO[C@H]1C[C@@H]2CC[C@@H](C)[C@@](O)(O2)C(=O)C(=O)N2CCCC[C@H]2C(=O)O[C@H]([C@H](C)C[C@@H]2CC[C@@H](OCCO)[C@H](OC)C2)CC(=O)[C@H](C)/C=C(\C)[C@@H](O)[C@@H](OC)C(=O)[C@H](C)C[C@H](C)/C=C/C=C/C=C/1C [RAD, everolimus]

LS Mean LDL Levels [1, 10]: 143.1 mg/dL | LS Mean LDL Levels [1, 11]: 119.8 mg/dL | LS Mean LDL Levels [1, 12]: 107.8 mg/dL | LS Mean LDL Levels [1, 13]: 113.9 mg/dL | LS Mean LDL Levels [1, 14]: 118.6 mg/dL | LS Mean LDL Levels [1, 15]: 143.7 mg/dL | LS Mean HDL levels [2, 10]: 50.4 mg/dL | LS Mean HDL levels [2, 11]: 56.8 mg/dL | LS Mean HDL levels [2, 12]: 45.5 mg/dL | LS Mean HDL levels [2, 13]: 45.5 mg/dL | LS Mean HDL levels [2, 14]: 56.8 mg/dL | LS Mean HDL levels [2, 15]: 50.4 mg/dL
Compound: COc1c(C)c2c(c(O)c1C/C=C(\C)CCC(=O)OCCN1CCOCC1)C(=O)OC2 [MMF, mycophenolate mofetil]
